Where “and” joins values, the source holds several entries; their conditions need not be identical. Equal entries are not always repeated.
System: 422866-222-R5-J1-PDC complex spheroid viability
Assay: Anticancer human tumor 422866-222-R5-J1-PDC patient-derived pancreatic adenocarcinoma cell line growth inhibition [POLQ]
Conditions: for viability, T/C: stronger effect = lower value; for IC50: curve of compound
Experimental: Multicellular complex tumor spheroid response to Polymerase (POL) inhibitors (novobiocin, ART-558, RP6685) in combination with a variety of drugs and investigational agents in selected tumor cell lines
The POL inhibitors (novobiocin, ART-558, and RP6685) were evaluated both individually and in combination with standard of care and investigational anticancer small molecules within a complex spheroid model of solid tumors. . Complex spheroids include a stromal component modeled by human endothelial cells (HUVEC) and fibroblasts modeled by human mesenchymal stem cells (MSCs). The concentration ranges selected for each drug and investigational agent were based upon clinically achievable concentrations if the clinical Cmax of the agent was known.
Compounds. The drugs and investigational agents: novobiocin (NSC847541), ART-558 (NSC835418), RP-6685 (NSC848927), peposertib (NSC802822), ceralasertib (NSC780249), elimusertib (NSC800525), camonsertib (NSC841442), AZD-1390 (NSC803789), olaparib (NSC753686), talazoparib (NSC767125), rucaparib (NSC756644), sotorasib (NSC818433), MRTX-1133 (NSC836407), SN-38 (NSC673596), topotecan (NSC609699), epotoside (NSC141540), doxorubicin (NSC123127), gemcitabine (NSC613327), 5-fluorouracil (NSC19893), paclitaxel (NSC125973), vemurafenib (NSC761431), MSA-2 (NSC828583), SN-011 (NSC837082), adavosertib (NSC754352), prexasertib (NSC758257), carboplatin (NSC241240) and oxaliplatin (NSC266046), were obtained from the National Cancer Institute (NCI) Developmental Therapeutics Program Chemical Repository (21). The FDA-approved anticancer drug set is available from the Developmental Therapeutics Program at https://dtp.cancer.gov/organization/dscb/obtaining/. […] The stock solutions were prepared in dimethyl sulfoxide (DMSO, Sigma-Aldrich, St. Louis, MO, cat. D2650), except for the platinum compounds which were prepared in saline (Quality Biological, Gaithersburg, MD, cat. 114-055-101), at 800-fold the tested concentration and stored at -70 degrees C prior to their use. All drugs and investigational agents were tested over a range starting from a high concentration at or near the clinical Cmax and decreasing in half-log increments. If the clinical Cmax for an agent had not been determined, the highest concentration tested was 10 microM, except for SN-38, which was tested at a high concentration of 1 microM.
Cell Culture. All cells were maintained in an incubator at 37 degrees C and 5% CO2 with 95% humidity. The PDC lines were cultured according to standard operating procedures established by the NCI PDMR (https://pdmr.cancer.gov). Table 3 of the manuscript, lists the cell lines along with the number of the three cell types plated to form the mct-spheroids and media for tumor cell growth. After thawing, all PDC lines, except 997537-175-T-J1-PDC and 415267-285-R-J2-PDC, were cultured in Matrigel-coated flasks prepared with a working solution of 1X Ham's F-12 nutrient mix, without supplementation (Thermo Fisher Scientific, cat. 11765054), 100 U/mL penicillin-streptomycin (Thermo Fisher Scientific, cat. 15140122), and 2.5% Matrigel (Corning Inc., Corning, NY, cat. 354248) for the first three passages. The two PDC lines 997537-175-T-J1-PDC and 415267-285-R-J2-PDC were cultured on uncoated flasks. The 857933-349-R-J2-PDC line was cultured in 6C/Colon 1B media containing advanced DMEM/F-12 (Thermo Fisher Scientific, cat. 12634028), 10 mM HEPES (Thermo Fisher Scientific, cat. 15630080), 1X GlutaMAX supplement (Thermo Fisher Scientific, cat. 35050061), 0.1 mg/mL primocin (InvivoGen, San Diego, CA, cat. ant-pm-2), 10% defined fetal bovine serum, heat inactivated (HyClone Laboratories Inc., Logan, UT, cat. SH30070.03HI), 50% L-WRN conditioned media (ATCC, cat. CRL-3276), 1.25 mM N-Acetyl-L-cysteine (Sigma-Aldrich, cat. A9165), 10 mM nicotinamide (Sigma-Aldrich, cat. N0636), 1X B-27 supplement (Thermo Fisher Scientific, cat. 17504044), 1X N-2 supplement (Thermo Fisher Scientific, cat. […]
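Also: spheroids exposed to compounds for one week before readout.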
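For viability, T/C in this document: percent of DMSO vehicle wells luminescence so 100% = untreated viability.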

Q: For C#Cc1c(F)ccc2cc(O)cc(-c3ncc4c(N5CC6CCC(C5)N6)nc(OCC56CCCN5CC(F)C6)nc4c3F)c12 (stereo unspecified), which viability, T/C (compound 0.0316 µM) is on record?
A: 93% and 91.1% and 102%

Q: What about the viability, T/C (compound 0.1 µM) of the same compound?
A: 80.5% and 89.6% and 83.2%

Q: What about the viability, T/C (compound 0.316 µM) of the same compound?
A: 60.1% and 59.7% and 68.7%

Q: And the viability, T/C (compound 1 µM)?
A: 44% and 50.6% and 51.8%

Q: And the viability, T/C (compound 3.16 µM)?
A: 33.9% and 34.4% and 34.3%

Q: And the viability, T/C (compound 10 µM)?
A: 26.9% and 24.2% and 26%

Q: And the IC50?
A: 666 nM and 869 nM and 1060 nM

Q: How did the viability, T/C (compound 0.0316 µM) turn out when C=CC(=O)N1CCN(c2nc(=O)n(-c3c(C)ccnc3C(C)C)c3nc(-c4c(O)cccc4F)c(F)cc23)C(C)C1 (stereo unspecified) was run?
A: 30.6% and 30.5% and 34.5%

Q: And the viability, T/C (compound 0.1 µM)?
A: 23.7% and 28.7% and 31.4%

Q: And the viability, T/C (compound 0.316 µM)?
A: 24.4% and 29.1% and 24.3%

Q: What about the viability, T/C (compound 1 µM) of the same compound?
A: 23.3% and 29.6% and 26.2%

Q: And the viability, T/C (compound 3.16 µM)?
A: 25.1% and 22.9% and 26.6%

Q: What about the viability, T/C (compound 10 µM) of the same compound?
A: 28.1% and 23.5% and 24.2%

Q: What about the IC50 of the same compound?
A: < 31.6 nM

Q: Which viability, T/C (compound 0.00316 µM) does the source give for C=CCn1c(=O)c2cnc(Nc3ccc(N4CCN(C)CC4)cc3)nc2n1-c1cccc(C(C)(C)O)n1 here?
A: 86.1% and 96.9% and 101%

Q: What about the viability, T/C (compound 0.01 µM) of the same compound?
A: 105% and 93% and 107%

Q: What about the viability, T/C (compound 0.0316 µM) of the same compound?
A: 105% and 93.5% and 83.3%

Q: And the viability, T/C (compound 0.1 µM)?
A: 85.7% and 91% and 78.1%

Q: What about the viability, T/C (compound 0.316 µM) of the same compound?
A: 56% and 43.9% and 56.5%

Q: What about the viability, T/C (compound 1 µM) of the same compound?
A: 36% and 31% and 34.6%

Q: What about the IC50 of the same compound?
A: 434 nM and 272 nM and 446 nM

Q: Which viability, T/C (compound 0.00949 µM) does the source give for CC(=O)O[C@H]1C(=O)[C@@]2(C)[C@H]([C@H](OC(=O)c3ccccc3)[C@]3(O)C[C@H](OC(=O)[C@H](O)[C@@H](NC(=O)c4ccccc4)c4ccccc4)C(C)=C1C3(C)C)[C@]1(OC(C)=O)CO[C@@H]1C[C@@H]2O here?
A: 50.9% and 53.8% and 66.3%

Q: What about the viability, T/C (compound 0.03 µM) of the same compound?
A: 50.2% and 51.8% and 56.2%

Q: What about the viability, T/C (compound 0.0949 µM) of the same compound?
A: 54.2% and 52.1% and 68.6%

Q: What about the viability, T/C (compound 0.3 µM) of the same compound?
A: 64.3% and 52.8% and 60.4%

Q: What about the viability, T/C (compound 0.949 µM) of the same compound?
A: 53.7% and 57.4% and 68.9%

Q: And the viability, T/C (compound 3 µM)?
A: 61.5% and 58.4% and 69.8%

Q: And the IC50?
A: > 3000 nM

Q: How did the viability, T/C (compound 0.0316 µM) turn out when CC(C)n1c(=O)n(C)c2cnc3cc(F)c(-c4ccc(OCCCN5CCCCC5)nc4)cc3c21 was run?
A: 105% and 90.3% and 107%

Q: And the viability, T/C (compound 0.1 µM)?
A: 98.6% and 91.8% and 89.1%

Q: And the viability, T/C (compound 0.316 µM)?
A: 110% and 103% and 104%

Q: And the viability, T/C (compound 3.16 µM)?
A: 93.9% and 88.3% and 79.2%

Q: And the viability, T/C (compound 10 µM)?
A: 70.4% and 52.7% and 75.8%

Q: And the IC50?
A: > 10000 nM

Q: How did the viability, T/C (compound 0.0316 µM) turn out when CC1COCCN1c1cc(-c2ccnn2C)c2ccnc(-c3ccn[nH]3)c2n1 (stereo unspecified) was run?
A: 76.8% and 96.8% and 97.8%

Q: What about the viability, T/C (compound 0.1 µM) of the same compound?
A: 61.1% and 55.4% and 46.2%

Q: What about the viability, T/C (compound 0.316 µM) of the same compound?
A: 38.6% and 42.8% and 35.1%

Q: What about the viability, T/C (compound 1 µM) of the same compound?
A: 44.4% and 36.6% and 37.6%

Q: What about the viability, T/C (compound 3.16 µM) of the same compound?
A: 80.4% and 81.7% and 64%

Q: What about the viability, T/C (compound 10 µM) of the same compound?
A: 69.2% and 80.5% and 68.2%

Q: What about the IC50 of the same compound?
A: > 10000 nM and 10000 nM

Q: Which results are given for CC1COCCN1c1cc(C2(O)CC3CCC(C2)O3)c2cnn(-c3ccn[nH]3)c2n1 (stereo unspecified)?
A: viability, T/C (compound 0.0316 µM): 81.2% and 74.1% and 69.6%; viability, T/C (compound 0.1 µM): 53.5% and 43.4% and 42.3%; viability, T/C (compound 0.316 µM): 50.6% and 44.2% and 35.5%; viability, T/C (compound 1 µM): 84% and 70.7% and 73.2%; viability, T/C (compound 3.16 µM): 80.6% and 79% and 77.3%; viability, T/C (compound 10 µM): 65.8% and 78.8% and 62.6%; IC50: > 10000 nM

Q: With CC1COCCN1c1cc(C2(S(C)(=N)=O)CC2)nc(-c2ccnc3[nH]ccc23)n1 (stereo unspecified) as the compound, how does the viability, T/C (compound 0.0316 µM) read?
A: 92.3% and 91.5% and 116%

Q: What about the viability, T/C (compound 0.1 µM) of the same compound?
A: 101% and 93.1% and 100%

Q: What about the viability, T/C (compound 0.316 µM) of the same compound?
A: 93.4% and 95.6% and 96.3%

Q: What about the viability, T/C (compound 1 µM) of the same compound?
A: 74% and 72.6% and 85.2%

Q: And the viability, T/C (compound 3.16 µM)?
A: 49.9% and 44.6% and 41.7%

Q: What about the viability, T/C (compound 10 µM) of the same compound?
A: 39.9% and 30.8% and 42%

Q: What about the IC50 of the same compound?
A: 3010 nM and 2460 nM and 2640 nM

Q: For CCCS(=O)(=O)Nc1ccc(F)c(C(=O)c2c[nH]c3ncc(-c4ccc(Cl)cc4)cc23)c1F, which viability, T/C (compound 0.0316 µM) is on record?
A: 102% and 117% and 105%

Q: And the viability, T/C (compound 0.1 µM)?
A: 115% and 138% and 140%

Q: What about the viability, T/C (compound 0.316 µM) of the same compound?
A: 130% and 119% and 128%

Q: What about the viability, T/C (compound 1 µM) of the same compound?
A: 163% (2×) and 148%

Q: And the viability, T/C (compound 3.16 µM)?
A: 194% and 210% and 192%

Q: And the IC50?
A: > 10000 nM

Q: How did the viability, T/C (compound 0.000316 µM) turn out when CC[C@@]1(O)C(=O)OCc2c1cc1n(c2=O)Cc2cc3c(CN(C)C)c(O)ccc3nc2-1 was run?
A: 104% and 91% and 103%

Q: And the viability, T/C (compound 0.001 µM)?
A: 106% and 95.4% and 94.5%

Q: And the viability, T/C (compound 0.00316 µM)?
A: 88% and 77% and 98.9%

Q: What about the viability, T/C (compound 0.01 µM) of the same compound?
A: 70.4% and 68.2% and 68.5%

Q: What about the viability, T/C (compound 0.0316 µM) of the same compound?
A: 48.4% and 37.3% and 41.3%

Q: And the viability, T/C (compound 0.1 µM)?
A: 36% and 32.2% and 33.8%

Q: And the IC50?
A: 28.8 nM and 20 nM and 21.1 nM

Q: What does the source list for CCc1c2c(nc3ccc(O)cc13)-c1cc3c(c(=O)n1C2)COC(=O)[C@]3(O)CC?
A: viability, T/C (compound 0.00316 µM): 44.8% and 37.1% and 42.1%; viability, T/C (compound 0.01 µM): 37.5% and 32.6% and 33.8%; viability, T/C (compound 0.0316 µM): 39.4% and 34.2% and 30.3%; viability, T/C (compound 0.1 µM): 39.1% and 34% and 31.1%; viability, T/C (compound 0.316 µM): 32.7% and 37.2% and 29.6%; viability, T/C (compound 1 µM): 24.8% and 18.2% and 24.5%; IC50: < 3.16 nM

Q: Which results are given for CCc1cc2c(N3CCc4c(cc(Cn5ccnc5)cc4-c4cn(C)nc4C(F)(F)F)C3=O)cc(C)nc2c(OC)n1?
A: viability, T/C (compound 0.0316 µM): 89.5% and 92.6% and 79.2%; viability, T/C (compound 0.1 µM): 93.5% and 80.2% and 93.8%; viability, T/C (compound 0.316 µM): 96.5% and 104% and 95.6%; viability, T/C (compound 1 µM): 120% and 102% and 96.1%; viability, T/C (compound 10 µM): 109% and 99.8% and 115%; IC50: > 10000 nM

Source: PubChem BioAssay AID1963844 (Molecular Pharmacology Branch, DTP, NCI, 2024)
